Data as given in patent US11959083B2, “Immunosuppression-reverting oligonucleotides inhibiting the expression of CD39” (Secarna Pharmaceuticals GmbH & Co. KG, priority 2016, dated 2024).
l = locked nucleic acid (LNA); d = 2'-deoxy (DNA)

Legend:
hCD39 protein = hCD39 protein expression in primary human CD8+ and CD4+ T cells after oligonucleotide removal (flow cytometry); format: cell-based; details: 10 μM for six days with anti-CD3, compared to untreated control cells
Protocol: Thereafter, oligonucleotides and anti-CD3 were removed and hCD39 protein expression was analyzed by flow cytometry three, six, and eleven days after oligonucleotide removal. CD39 protein expression is depicted as mean fluorescence intensity (MFI) and was calculated by subtracting the MFI of the unspecific isotype control from the MFI of CD39. Depicted is the mean of duplicate wells+/−SD.
A04040H had shown very potent activity in suppressing hCD39 expression on mRNA- and protein-level in human cancer cell lines. In the next step, its activity in primary human T cells was investigated. Furthermore, the persistence of the effects after antisense oligonucleotide removal was examined. Therefore, CD8^+ and CD4^+ T cells were isolated from peripheral blood and activated for a total treatment time of six days with anti-CD3 in the presence of 10 μM of the hCD39 specific antisense oligonucleotide A04040H (black column) or the control oligonucleotide S6 (white column), which is not complementary to any human mRNA. […] Thereafter, oligonucleotides were removed and hCD39 protein expression was analyzed three, six, and eleven days after oligonucleotide removal by flow cytometry (FIG. 9).

hCD39 mRNA = assay: IC50 determination / concentration-dependent hCD39 mRNA knockdown in HDLM-2 cells; format: cell-based, human; details: for mRNA inhibition: HDLM-2, 3 days; for IC50: hCD39 mRNA, 3 days
Procedure, shortened: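 Antisense oligonucleotides applied to HDLM-2 cells for 3 days, titrated 10 μM down to 4.5 nM. hCD39 mRNA normalized to HPRT1 and expressed as residual level relative to untreated cells (100); mean of triplicates, IC50 from concentration-response.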

human CD8+ T cells = assay: Proliferation and absolute cell numbers of human CD8+ T cells in presence or absence of extracellular ATP; format: cell-based; details: 5 μM oligonucleotide 5 days or 20 μM ARL67156 24 h
Protocol: (§1) FIG. 12A-12C depict human CD8^+ T cells which were labelled with cell proliferation dye, activated with anti-CD3 and treated with 5 μM of the antisense oligonucleotide A04040H (black column) or the control oligonucleotide S6 (white column) for a total treatment time of 5 days. In the vehicle control (striped column), cells were activated with anti-CD3 only. Subsequently, 400 μM of ATP or vehicle were added to cells on day 3 and day 4 after start of oligonucleotide treatment. Furthermore, as additional control, the small molecular CD39-inhibitor ARL67156 trisodium salt was added at 20 μM to cells on day 4, for an incubation time of 24 h (checked column). On day 5 after start of oligonucleotide treatment, (FIG. 12A) CD39 protein expression, (FIG. 12B) proliferation and (FIG. 12C) absolute cell numbers of CD8^+ T cells were analyzed using Flow Cytometry. Depicted is the mean of triplicate wells+/−SD.
In cancer, ATP is released from tumor cells for example after cell death induced by chemotherapy or radiation therapy. Since the CD39-CD73 axis plays an important role for T cell function the effects of A04040H on T cell proliferation in the presence or absence of extracellular ATP were investigated. Human CD8^+ T cells were labelled with cell proliferation dye, activated with anti-CD3 and treated with 5 μM of the antisense oligonucleotide A04040H or the control oligonucleotide S6 for a total treatment time of 5 days. In the vehicle control, cells were activated with anti-CD3 only. Subsequently, 400 μM of ATP or vehicle were added to cells on day 3 and day 4 after start of oligonucleotide treatment. Furthermore, as additional control, the small molecular CD39-inhibitor ARL67156 trisodium salt was added at 20 μM to cells on day 4 for an incubation time of 24 h. On day 5 after start of oligonucleotide treatment, CD39 protein expression, proliferation, and absolute cell numbers of CD8^+ T cells were analyzed using Flow Cytometry.

CD39 protein = CD39 protein expression in human CD8+ T cells (flow cytometry, Example 11); format: cell-based; details: 5 μM, 5 days, anti-CD3
Protocol: as §1
In cancer, ATP is released from tumor cells for example after cell death induced by chemotherapy or radiation therapy. Since the CD39-CD73 axis plays an important role for T cell function the effects of A04040H on T cell proliferation in the presence or absence of extracellular ATP were investigated. […] On day 5 after start of oligonucleotide treatment, CD39 protein expression, proliferation, and absolute cell numbers of CD8^+ T cells were analyzed using Flow Cytometry.

[1] = absence of extracellular ATP, vs vehicle
[2] = supplementation with 400 μM of ATP

Substance: +G*+T*+T*T*G*T*G*T*G*A*G*A*G*C*+T*+T (antisense GTTTGTGTGAGAGCTT; sugars from the 5' end l3 d11 l2, all phosphorothioate, methylation of C not given here) [A04040H]
- hCD39 protein expression (MFI) after oligonucleotide removal (hCD39 protein): significantly suppressed hCD39 protein expression for a duration of at least six days after removal
- mRNA inhibition (hCD39 mRNA; 0.45 nM, Table 12): 0.00%
- mRNA inhibition (hCD39 mRNA; 1.3 nM, Table 12): 0.00%
- mRNA inhibition (hCD39 mRNA; 4 nM, Table 12): 0.00%
- mRNA inhibition (hCD39 mRNA; 0.0045 μM, Table 8): 22.64%
- mRNA inhibition (hCD39 mRNA; 0.0045 μM, Table 9): 12.51%
- mRNA inhibition (hCD39 mRNA; 12 nM, Table 12): 0.00%
- mRNA inhibition (hCD39 mRNA; 0.013 μM, Table 8): 40.51%
- mRNA inhibition (hCD39 mRNA; 0.013 μM, Table 9): 36.68%
- mRNA inhibition (hCD39 mRNA; 0.04 μM, Table 8): 62.42%
- mRNA inhibition (hCD39 mRNA; 0.04 μM, Table 9): 74.68%
- mRNA inhibition (hCD39 mRNA; 40 nM, Table 12): 27.56%
- mRNA inhibition (hCD39 mRNA; 110 nM, Table 12): 69.84%
- mRNA inhibition (hCD39 mRNA; 0.12 μM, Table 8): 88.40%
- mRNA inhibition (hCD39 mRNA; 0.12 μM, Table 9): 93.14%
- mRNA inhibition (hCD39 mRNA; 330 nM, Table 12): 91.26%
- mRNA inhibition (hCD39 mRNA; 0.4 μM, Table 8): 95.94%
- mRNA inhibition (hCD39 mRNA; 0.4 μM, Table 9): 98.42%
- mRNA inhibition (hCD39 mRNA; 1000 nM, Table 12): 97.06%
- mRNA inhibition (hCD39 mRNA; 1.1 μM, Table 8): 98.54%
- mRNA inhibition (hCD39 mRNA; 1.1 μM, Table 9): 99.38%
- mRNA inhibition (hCD39 mRNA; 3.3 μM, Table 8): 99.01%
- mRNA inhibition (hCD39 mRNA; 3.3 μM, Table 9): 99.32%
- mRNA inhibition (hCD39 mRNA; 10 μM, Table 8): 98.98%
- mRNA inhibition (hCD39 mRNA; 10 μM, Table 9): 99.57%
- maximal target inhibition (hCD39 mRNA) (hCD39 mRNA; HDLM-2 cells, compared to untreated cells, first IC50 determination): 99%
- IC50 (hCD39 mRNA; HDLM-2 cells, first screening round (Table 8)): 25.3 nM
- IC50 (hCD39 mRNA; HDLM-2 cells, second screening round (Table 9)): 21.5 nM
- IC50 (hCD39 mRNA; HDLM-2 cells, third screening round (Table 12)): 52.8 nM
- absolute cell numbers of CD8+ T cells (human CD8+ T cells; [1]): no differences
- proliferation of CD8+ T cells (human CD8+ T cells; [1]): no differences
- absolute numbers of CD8+ T cells (human CD8+ T cells; [2]): not altered
- proliferation of CD8+ T cells (human CD8+ T cells; [2]): not reduced
- CD39 protein expression (CD39 protein): potently suppressed
